In US20250144067A1, “PERSONALIZED STARVATION THERAPY FOR CANCER” (Faeth Therapeutics, Inc., priority 2021, published 2025):
Where a name gives a salt, the structure may show the parent alone. Read-outs that look alike come from different tables or passages of the source.

Columns and labels:
[1] = tested on: NCI-H292 lung cancer cells; assay: FDA drug screening, complete media vs cholesterol-free media without statin (TABLE 1); type: cell-based, human
[2] = tested on: NCI-H292 lung cancer cells; assay: FDA drug screening, complete media vs cholesterol-free media with simvastatin (TABLE 2); type: cell-based, human
[3] = Complete minus Cholesterol-free, greater than 0 enhanced anti-cancer activity, about 0 neutral, below 0 antagonist
[4] = NCI-H292 cells, FDA drug library screen, cholesterol-free media without statin
[5] = NCI-H292 cells, FDA drug library screen, complete media
[6] = NCI-H292 cells, cholesterol-free media with simvastatin 0.04 μM, FDA drug library screen (TABLE 2)
[7] = NCI-H292 cells, complete media, FDA drug library screen (TABLE 2)
[8] = NCI-H292 cells, cholesterol-free media without statin, FDA drug library screen
[9] = NCI-H292 cells, complete media, FDA drug library screen
[10] = complete vs cholesterol-free media, >0 enhanced anti-cancer activity, about 0 neutral, <0 antagonist
[11] = NCI-H292 cells, FDA drug library screen, cholesterol-free media with simvastatin 0.04 μM
[12] = complete media vs cholesterol-free media + simvastatin (0.04 μM), >0 enhanced anti-cancer activity, about 0 neutral, <0 antagonist
[13] = NCI-H292 cells, cholesterol-free media without statin
[14] = NCI-H292 cells, drug in cholesterol-free media with simvastatin 0.04 μM
[15] = NCI-H292 cells, drug in complete media
[16] = Complete minus Cholesterol-free, >0 enhanced anti-cancer activity, about 0 neutral, <0 antagonist
[17] = NCI-H292 cells, FDA library drug in cholesterol-free media with simvastatin 0.04 μM
[18] = NCI-H292 cells, FDA library drug in complete media

With `CN(C)CCCN1c2ccccc2Sc2ccc(C(F)(F)F)cc21` [Triflupromazine (hydrochloride)] the Cholesterol-free [1] was 0.9938, the Complete [1] was 0.8066 and the Difference [1] was −0.19. The “Cholesterol-free media + simvastatin (0.04 μM)” value [2] was 0.02542, the “Complete Media” value [2] was 1.475 and the Difference [2] was 1.45.

`O=c1[nH]c(=O)n([C@H]2C[C@H](O)[C@@H](CO)O2)cc1C(F)(F)F` [Trifluridine] showed a Difference [1, 3] of −0.14, a Cholesterol-free [1, 4] of 0.2875 and a Complete [1, 5] of 0.145. For the same molecule, the “Cholesterol-free media + simvastatin (0.04 μM)” value [2, 6] was 0.1119, the “Complete Media” value [2, 7] was 0.1066 and the Difference ([2]; complete media minus cholesterol-free media + simvastatin (0.04 μM), >0 enhanced anti-cancer activity, about 0 neutral, <0 antagonist) was −0.01.

`CC(=O)Oc1cc(C(F)(F)F)ccc1C(=O)O` [Triflusal] was tested, and the Cholesterol-free [1, 8] was 1.019, the Complete [1, 9] was 1.117 and the Difference [1, 10] was 0.10. For the same molecule, the “Cholesterol-free media + simvastatin (0.04 μM)” value [2, 11] was 1.154, the “Complete Media” value [2, 5] was 1.083 and the Difference [2, 12] was −0.07.

In the case of `OC(CCN1CCCCC1)(c1ccccc1)C1CCCCC1` (stereo not drawn) [Trihexyphenidyl (hydrochloride)], the Cholesterol-free [1, 13] is reported as 1.407, the Complete ([1]; NCI-H292 cells, complete media) is reported as 0.9676 and the Difference ([1]; complete vs cholesterol-free media, greater than 0 enhanced anti-cancer activity, about 0 neutral, below 0 antagonists) is reported as −0.44. The “Cholesterol-free media + simvastatin (0.04 μM)” value [2, 14] was 0.9099, the “Complete Media” value [2, 15] was 0.6915 and the Difference [2, 12] was −0.22.

Work on `C[C@]12CC[C@H]3[C@@H](CC[C@@]45O[C@@H]4C(O)=C(C#N)C[C@]35C)[C@@H]1CC[C@@H]2O` [Trilostane] yielded a Difference [1, 16] of −0.23, a Cholesterol-free [1, 13] of 1.238 and a Complete ([1]; NCI-H292 cells, complete media) of 1.003. For the same molecule, the “Cholesterol-free media + simvastatin (0.04 μM)” value [2, 14] was 1.758, the “Complete Media” value [2, 15] was 1.505 and the Difference [2, 12] was −0.25.

Work on `COc1ccc(CN2CCNCC2)c(OC)c1OC` [Trimetazidine (dihydrochloride)] yielded a Difference [1, 16] of −0.30, a Cholesterol-free [1, 13] of 1.134 and a Complete ([1]; NCI-H292 cells, complete media) of 0.836. The “Cholesterol-free media + simvastatin (0.04 μM)” value [2, 14] was 1.296, the “Complete Media” value [2, 15] was 1.112 and the Difference [2, 12] was −0.18.

`CN1C(=O)OC(C)(C)C1=O` [Trimethadione] was tested, and the Difference [1, 16] was −0.23, the Cholesterol-free [1, 13] was 1.085 and the Complete ([1]; NCI-H292 cells, complete media) was 0.857. The “Cholesterol-free media + simvastatin (0.04 μM)” value ([2]; NCI-H292 cells, cholesterol-free media with simvastatin 0.04 μM, cell growth value in FDA drug screen) was 1.017, the “Complete Media” value ([2]; NCI-H292 cells, complete media, cell growth value in FDA drug screen) was 1.08 and the Difference ([2]; complete media minus cholesterol-free media + simvastatin, >0 enhanced anti-cancer activity, about 0 neutral, <0 antagonist) was 0.06.

For `COc1cc(C(=O)NCc2ccc(OCCN(C)C)cc2)cc(OC)c1OC` [Trimethobenzamide hydrochloride], the Cholesterol-free [1, 8] was 0.8254, the Complete [1, 9] was 0.9013 and the Difference [1, 10] was 0.08. For the same molecule, the “Cholesterol-free media + simvastatin (0.04 μM)” value [2, 17] was 1.241, the “Complete Media” value [2, 18] was 0.874 and the Difference [2, 12] was −0.37.

With `COc1cc(Cc2cnc(N)nc2N)cc(OC)c1OC` [Trimethoprim] the Cholesterol-free [1, 8] was 0.567, the Complete [1, 9] was 1.096 and the Difference [1, 10] was 0.53. The “Cholesterol-free media + simvastatin (0.04 μM)” value [2, 17] was 1.335, the “Complete Media” value [2, 18] was 1.064 and the Difference [2, 12] was −0.27.

For `COc1cc(NCc2ccc3nc(N)nc(N)c3c2C)cc(OC)c1OC` [Trimetrexate], the Difference [1, 16] was −0.04, the Cholesterol-free [1, 8] was 0.1317 and the Complete [1, 9] was 0.09583. The “Cholesterol-free media + simvastatin (0.04 μM)” value [2, 11] was 0.2201, the “Complete Media” value [2, 5] was 0.1203 and the Difference [2, 12] was −0.10.

`Cc1cc2cc3c(C)cc(=O)oc3c(C)c2o1` [Trioxsalen] was tested, and the Cholesterol-free [1, 8] was 1.107, the Complete [1, 9] was 1.239 and the Difference [1, 10] was 0.13. The “Cholesterol-free media + simvastatin (0.04 μM)” value [2, 11] was 1.056, the “Complete Media” value [2, 5] was 0.9717 and the Difference [2, 12] was −0.08.

`CN(C)CCN(Cc1ccccc1)c1ccccn1` [Tripelennamine (hydrochloride)] was tested, and the Difference [1, 3] was −0.13, the Cholesterol-free [1, 4] was 1.185 and the Complete [1, 5] was 1.051. For the same molecule, the “Cholesterol-free media + simvastatin (0.04 μM)” value [2, 17] was 1.12, the “Complete Media” value [2, 18] was 0.8343 and the Difference [2, 12] was −0.29.

In the case of `Cc1ccc(/C(=C\CN2CCCC2)c2ccccn2)cc1` [Triprolidine (hydrochloride monohydrate)], the Difference [1, 3] is reported as −0.13, the Cholesterol-free [1, 4] is reported as 1.24 and the Complete [1, 5] is reported as 1.107. The “Cholesterol-free media + simvastatin (0.04 μM)” value [2, 17] was 1.806, the “Complete Media” value [2, 18] was 1.191 and the Difference [2, 12] was −0.61.

Work on `CC(C)[C@]12O[C@H]1[C@@H]1O[C@]13[C@]1(O[C@H]1C[C@H]1C4=C(CC[C@@]13C)C(=O)OC4)[C@@H]2O` [Triptolide] yielded a Difference ([1]; Complete minus Cholesterol-free, […]) of −0.01, a Cholesterol-free [1, 8] of 0.04113 and a Complete [1, 9] of 0.03049. For the same molecule, the “Cholesterol-free media + simvastatin (0.04 μM)” value [2, 6] was 0.007136, the “Complete Media” value [2, 7] was −0.02177 and the Difference ([2]; complete media minus cholesterol-free media + simvastatin (0.04 μM), […]) was −0.03.
